Values of other authors in patent US20060280815A1, “Nutritional composition which promotes weight loss, burns calories, increases thermogenesis, supports energy metabolism and/or suppresses appetite” (priority 2004, published 2006).

Settings: people with type 2 diabetes; acute abstention from caffeine

In the case of `Cn1c(=O)c2c(ncn2C)n(C)c1=O` [caffeine], the “reduction of postprandial glucose levels” value is given as 21%.
